Assay results: paper PMC8338929, “Acetylation turns leucine into a drug by membrane transporter switching” (Scientific Reports, 2021)

Experiments:
human MCT1 (SLC16A1) = target: T1, human MCT1 (SLC16A1) (Homo sapiens, UniProt P53985); assay: Inhibition of MCT1 uptake of probe substrate 2-thiophene glyoxylate in MDCK-II cells; type: cell-based
T1 construct: host or cells: MDCK-II
T1 sequence (P53985 1-500): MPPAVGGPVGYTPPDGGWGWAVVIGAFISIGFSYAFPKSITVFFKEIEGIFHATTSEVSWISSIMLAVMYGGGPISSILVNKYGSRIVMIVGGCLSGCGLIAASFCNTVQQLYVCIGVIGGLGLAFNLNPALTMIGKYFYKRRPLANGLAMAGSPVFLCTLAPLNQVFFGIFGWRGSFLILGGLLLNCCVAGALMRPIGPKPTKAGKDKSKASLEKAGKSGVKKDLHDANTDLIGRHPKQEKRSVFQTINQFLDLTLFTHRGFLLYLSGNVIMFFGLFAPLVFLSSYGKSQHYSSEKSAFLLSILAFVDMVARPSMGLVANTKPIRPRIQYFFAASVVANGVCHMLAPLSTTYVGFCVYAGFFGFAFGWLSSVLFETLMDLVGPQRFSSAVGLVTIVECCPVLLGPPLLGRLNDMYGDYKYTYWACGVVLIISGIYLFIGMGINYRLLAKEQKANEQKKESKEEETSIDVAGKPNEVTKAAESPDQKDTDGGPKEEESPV
Experimental: (§1) Transport studies with human PepT1 (SLC15A1), LAT1 (SLC7A5) and MCT1 (SLC16A1) were conducted in MDCK-II cells expressing the human transporter or control cells expressing a vector with Green Fluorescence Protein. Cells were transfected using a proprietary, transient transfection system (OPTI-EXPRESSION Technology, BioIVT). The results from the control cells were used to correct for substrate permeation by routes other than the transporter being investigated in the study. […] Specifically, Net Transporter Mediated Substrate Uptake (pmol/min/cm^2) = (Cellular accumulation in the presence of the transporter) − (Mean cellular accumulation in the absence of the transporter). MDCK-II cells were maintained in DMEM with low glucose and 10% FBS. Cells were used at passages up to 40 were seeded at 60,000 ± 10,000 cells/well on 96-well plates approximately 24 h before transfection, and transport assays were performed approximately 48 h after transfection. Transport studies in MDCK-II cells were conducted in 96-well insert plates with permeable membrane (0.4 µm) and receiver tray (Millipore MultiScreen Filter 96-well).
Transport studies with PepT1 were conducted in 96-well cell culture plate with wells containing a monolayer of MDCK-II cells grown on a permeable support and a corresponding 96-well receiver tray. Cell plates are maintained at 37 °C in 5% CO2 atmosphere prior to initiation of the transport experiment. Pre-incubation was conducted in HBSS, pH 7.4. The transport experiments were conducted in HBSS with Bis–Tris, pH 5.5, without phenol red. Both pre-incubation and incubation were conducted at 37 °C. All final assay solutions of probe substrate, reference inhibitor or test article contain 0.5% (v/v) DMSO (vehicle control). The culture plate insert […] was washed with warm HBSS three times and then blotted dry. The culture plate wells […] were washed with warm HBSS three times. 100 µL of 37 °C HBSS pH 7.4 pre-incubation buffer to the apical compartment as follows: for the probe substrate transport assay, the HBSS contains vehicle; for the reference inhibition assay, the HBSS contains the reference inhibitor at the required concentration; for the test article assays, the HBSS in each well contains test compound at the specified concentration. The plates were incubated at 37 °C with orbital shaking at approximately 60 rpm for the pre-incubation (30 min), aspirated and then 100 µL of the experimental buffer was added. […] Then a 30-µL sample was taken and mixed with 200 µL of scintillation fluid and scintillation counted (1450 Microbeta, Perkin-Elmer). […]

human LAT1 (SLC7A5) = target: T2, human LAT1 (SLC7A5) (Homo sapiens, UniProt Q01650); assay: LAT1-mediated cellular uptake in transfected MDCK-II cells; type: cell-based; settings: HBSS pH 7.4, 3 min, 37 °C
T2 construct: host or cells: MDCK-II
T2 sequence (Q01650 whole entry): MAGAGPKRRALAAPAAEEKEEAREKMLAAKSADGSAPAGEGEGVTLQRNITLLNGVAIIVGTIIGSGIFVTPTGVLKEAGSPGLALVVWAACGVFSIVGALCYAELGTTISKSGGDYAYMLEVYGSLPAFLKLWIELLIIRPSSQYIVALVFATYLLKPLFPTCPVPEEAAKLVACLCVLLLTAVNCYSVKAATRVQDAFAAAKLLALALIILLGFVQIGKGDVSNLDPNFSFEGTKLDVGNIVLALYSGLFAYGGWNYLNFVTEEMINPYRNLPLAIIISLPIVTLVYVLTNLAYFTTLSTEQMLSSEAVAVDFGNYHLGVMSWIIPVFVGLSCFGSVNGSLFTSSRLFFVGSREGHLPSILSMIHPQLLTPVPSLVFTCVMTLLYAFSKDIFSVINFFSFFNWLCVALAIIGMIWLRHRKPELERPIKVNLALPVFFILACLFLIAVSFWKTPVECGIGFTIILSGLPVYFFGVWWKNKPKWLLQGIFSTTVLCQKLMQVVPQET
T2 sequence (P08195 102-630 partner): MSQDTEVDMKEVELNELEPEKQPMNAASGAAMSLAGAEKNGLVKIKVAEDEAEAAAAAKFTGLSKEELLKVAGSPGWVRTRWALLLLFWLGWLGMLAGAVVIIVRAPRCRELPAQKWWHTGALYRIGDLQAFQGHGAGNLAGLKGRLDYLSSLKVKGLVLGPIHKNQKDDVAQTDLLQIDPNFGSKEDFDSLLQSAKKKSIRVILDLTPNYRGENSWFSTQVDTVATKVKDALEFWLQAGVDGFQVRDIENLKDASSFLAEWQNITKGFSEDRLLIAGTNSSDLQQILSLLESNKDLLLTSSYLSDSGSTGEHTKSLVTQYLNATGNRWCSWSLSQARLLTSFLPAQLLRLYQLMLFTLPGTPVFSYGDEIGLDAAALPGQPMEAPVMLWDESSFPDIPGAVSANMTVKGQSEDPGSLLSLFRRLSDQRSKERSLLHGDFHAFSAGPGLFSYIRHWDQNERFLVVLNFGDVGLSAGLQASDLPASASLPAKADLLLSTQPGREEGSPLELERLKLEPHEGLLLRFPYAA
Experimental: as §1, with “Transport studies in MDCK-II cells were conducted in 96-well insert plates with permeable membrane (0.4 µm) and receiver tray (Millipore MultiScreen Filter 96-well).” left out
Transport studies with PepT1 were conducted in 96-well cell culture plate with wells containing a monolayer of MDCK-II cells grown on a permeable support and a corresponding 96-well receiver tray. […] Then a 30-µL sample was taken and mixed with 200 µL of scintillation fluid and scintillation counted (1450 Microbeta, Perkin-Elmer). […]

- Ki (human MCT1 (SLC16A1); Cheng-Prusoff equation from IC50, competitive inhibition assumed, read-out: affinity (Ki) MCT1): 4.3 mM
- IC50 (human MCT1 (SLC16A1); probe 2-thiophene glyoxylate 500 µM, positive control phloretin 500 µM): 15 mM
- substrate of LAT1 (uptake) (human LAT1 (SLC7A5)): not transported
- substrate of LAT1 (uptake) (human LAT1 (SLC7A5); listed as N-acetyl-leucine): not a substrate
Structure (SMILES): CC(=O)N[C@@H](CC(C)C)C(=O)O [N-acetyl-L-leucine]
